Assay results from patent publication US7247621B2, “Antiviral phosphonate compounds and methods therefor” (Valeant Research & Development, priority 2002, dated 2007).

Columns and labels:
[1] = target: HCV RNA dependent RNA polymerase (RdRp), NS5B (Hepatitis C virus genotype 1b, UniProt P26663); assay: Incorporation of phosphonate ATP analogs into RNA product by HCV RdRp (gel, extension of [33P]GpC); format: biochemical; conditions: for extension of [33P]GpC by HCV RdRp (incorporation into RNA product): 1 mM nucleotide, 10 μM [33P]GpC, 10 μM 5′-AAAAAAAUGC-3′ template, 2.5 μM HCV RdRp, FIG. 8
Description: Among other nucleotide analogs (data not shown), two exemplary phosphonate analogs of ATP, 5′-deoxy-5′-phosphonate (5′d-ATP) and 5′-deoxy-5′-methylene phosphonate (5′d-CH2-ATP), were tested for inhibition and/or incorporation into an RNA product by the HCV RNA dependent RNA polymerase (RdRp). The incorporation reactions included 1 mM of the phosphonate analog or ATP, 10 μM of [^33P]GpC, 10 μM of 5′-AAAAAAAUGC-3′, and 2.5 μM of HCV RdRp in a buffer that contained 50 mM Hepes, pH 7.3, 10 mM DTT, and 5 mM MgCl2. The RNA products were resolved on a 25% polyacrylamide-7M urea-TBE gel. […] The incorporation of 5′d-CH2-ATP is less efficient than that of ATP by 10-fold. To look for further elongation after incorporation of ATP or 5′d-CH2-ATP, the same experiment was performed in the presence of additional UTP (1 mM).
Exemplary results of such tests are depicted in the autoradiograph of FIG. 8 showing RNA products from incorporations of ATP and phosphonate analogs of ATP by HCV RdRp. Each reaction contained 2.5 μM of RdRp, 10 μM of [^33P]GpC, 10 μM template, and the following nucleotides (1 mM): lane 1, none; lane 2, ATP; lane 3,5′-deoxy-5′-phosphonate ATP; lane 4,5′-deoxy-5′-methylene phosphonate ATP; lane 5, ATP and UTP; lane 6,5′-deoxy-5′-phosphonate ATP and UTP; lane 7,5′-deoxy-5′-methylene phosphonate ATP and UTP. The reaction products were resolved on a 25% polyacrylamide-7 M urea-TBE gel and the gel was scanned on a PhosporImager.

[2] = target: E. coli RNA polymerase (Escherichia coli, UniProt P0A8T7+P0A8V2); conditions: Savochkina et al. Mol. Biol. (Mosk) 1989; cited from earlier work
Chain of E. coli RNA polymerase (P0A8T7 whole entry): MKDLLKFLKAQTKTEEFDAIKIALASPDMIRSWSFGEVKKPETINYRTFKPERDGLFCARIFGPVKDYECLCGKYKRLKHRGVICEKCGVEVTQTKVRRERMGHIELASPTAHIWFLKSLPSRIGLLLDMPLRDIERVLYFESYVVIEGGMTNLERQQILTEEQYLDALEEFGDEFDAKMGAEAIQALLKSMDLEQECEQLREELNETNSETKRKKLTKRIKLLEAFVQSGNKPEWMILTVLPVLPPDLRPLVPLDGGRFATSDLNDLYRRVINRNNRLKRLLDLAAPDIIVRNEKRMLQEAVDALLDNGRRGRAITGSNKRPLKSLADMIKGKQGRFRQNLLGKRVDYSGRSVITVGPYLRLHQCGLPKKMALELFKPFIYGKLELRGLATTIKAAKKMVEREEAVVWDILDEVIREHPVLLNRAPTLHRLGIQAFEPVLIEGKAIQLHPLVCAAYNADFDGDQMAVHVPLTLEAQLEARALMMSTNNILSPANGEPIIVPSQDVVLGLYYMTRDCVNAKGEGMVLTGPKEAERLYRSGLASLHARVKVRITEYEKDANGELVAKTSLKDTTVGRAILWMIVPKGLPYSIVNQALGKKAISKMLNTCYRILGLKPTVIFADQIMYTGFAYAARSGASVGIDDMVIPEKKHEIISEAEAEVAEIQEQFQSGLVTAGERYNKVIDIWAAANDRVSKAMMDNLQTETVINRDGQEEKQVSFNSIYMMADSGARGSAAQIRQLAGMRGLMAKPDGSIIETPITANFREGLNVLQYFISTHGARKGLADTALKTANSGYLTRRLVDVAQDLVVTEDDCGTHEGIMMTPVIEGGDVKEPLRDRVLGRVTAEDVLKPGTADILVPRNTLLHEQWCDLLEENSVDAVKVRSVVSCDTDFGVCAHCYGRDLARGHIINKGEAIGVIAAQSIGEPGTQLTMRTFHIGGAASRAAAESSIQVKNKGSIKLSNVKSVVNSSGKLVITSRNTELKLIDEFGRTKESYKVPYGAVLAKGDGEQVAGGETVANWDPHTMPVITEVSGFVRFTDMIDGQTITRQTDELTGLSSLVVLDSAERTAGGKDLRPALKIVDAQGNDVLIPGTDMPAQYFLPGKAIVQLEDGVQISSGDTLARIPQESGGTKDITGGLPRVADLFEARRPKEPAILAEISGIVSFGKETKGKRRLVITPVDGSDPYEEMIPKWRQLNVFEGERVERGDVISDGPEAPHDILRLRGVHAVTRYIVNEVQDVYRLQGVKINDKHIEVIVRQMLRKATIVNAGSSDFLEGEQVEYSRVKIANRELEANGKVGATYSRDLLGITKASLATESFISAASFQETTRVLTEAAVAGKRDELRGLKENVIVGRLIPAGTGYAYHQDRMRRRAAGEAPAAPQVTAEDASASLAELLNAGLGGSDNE
Chain of E. coli RNA polymerase (P0A8V2 whole entry): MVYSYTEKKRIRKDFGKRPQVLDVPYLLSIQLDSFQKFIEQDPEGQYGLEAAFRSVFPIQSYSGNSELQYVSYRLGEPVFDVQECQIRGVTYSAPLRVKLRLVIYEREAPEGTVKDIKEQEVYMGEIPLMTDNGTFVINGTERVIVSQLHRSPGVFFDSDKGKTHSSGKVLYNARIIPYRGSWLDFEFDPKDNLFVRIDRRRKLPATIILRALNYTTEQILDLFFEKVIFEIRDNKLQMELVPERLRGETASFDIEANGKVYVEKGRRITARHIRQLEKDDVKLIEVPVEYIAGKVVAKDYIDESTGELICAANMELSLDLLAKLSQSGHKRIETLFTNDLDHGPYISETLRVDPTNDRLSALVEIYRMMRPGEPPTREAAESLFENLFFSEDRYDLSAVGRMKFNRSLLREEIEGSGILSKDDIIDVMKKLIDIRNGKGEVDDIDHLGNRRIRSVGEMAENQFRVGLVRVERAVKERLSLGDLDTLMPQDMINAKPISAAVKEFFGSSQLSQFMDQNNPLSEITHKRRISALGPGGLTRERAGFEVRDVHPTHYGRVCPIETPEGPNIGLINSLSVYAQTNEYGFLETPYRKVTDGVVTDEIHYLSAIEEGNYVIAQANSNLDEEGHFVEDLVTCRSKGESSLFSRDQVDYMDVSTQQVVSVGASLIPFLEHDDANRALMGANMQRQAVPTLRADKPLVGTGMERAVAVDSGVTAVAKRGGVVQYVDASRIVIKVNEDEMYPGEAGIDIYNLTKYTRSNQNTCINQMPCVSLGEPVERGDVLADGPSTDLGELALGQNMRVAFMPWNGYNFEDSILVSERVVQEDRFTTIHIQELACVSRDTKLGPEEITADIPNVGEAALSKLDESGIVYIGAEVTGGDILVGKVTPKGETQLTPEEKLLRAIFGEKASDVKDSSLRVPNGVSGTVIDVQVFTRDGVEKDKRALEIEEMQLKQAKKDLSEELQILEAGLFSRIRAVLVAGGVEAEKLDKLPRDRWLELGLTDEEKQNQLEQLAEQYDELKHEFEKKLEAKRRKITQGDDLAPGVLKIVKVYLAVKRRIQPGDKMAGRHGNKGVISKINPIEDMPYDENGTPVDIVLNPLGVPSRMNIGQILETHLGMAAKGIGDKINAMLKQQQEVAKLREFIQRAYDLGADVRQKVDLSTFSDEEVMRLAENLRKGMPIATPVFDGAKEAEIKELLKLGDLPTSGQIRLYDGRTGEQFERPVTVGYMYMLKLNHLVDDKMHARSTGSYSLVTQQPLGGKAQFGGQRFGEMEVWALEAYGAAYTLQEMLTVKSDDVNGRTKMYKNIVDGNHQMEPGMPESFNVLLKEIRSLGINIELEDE
Chain of E. coli RNA polymerase (P0A7Z4 whole entry, further chain): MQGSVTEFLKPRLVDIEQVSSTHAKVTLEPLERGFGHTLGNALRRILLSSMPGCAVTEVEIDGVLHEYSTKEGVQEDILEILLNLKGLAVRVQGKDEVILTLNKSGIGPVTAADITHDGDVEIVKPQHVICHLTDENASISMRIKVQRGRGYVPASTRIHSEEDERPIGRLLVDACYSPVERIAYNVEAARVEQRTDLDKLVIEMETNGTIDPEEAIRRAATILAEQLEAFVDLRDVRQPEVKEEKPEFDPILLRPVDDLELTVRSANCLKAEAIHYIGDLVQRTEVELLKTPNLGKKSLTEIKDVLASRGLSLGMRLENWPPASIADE
Chain of E. coli RNA polymerase (P0A800 whole entry, further chain): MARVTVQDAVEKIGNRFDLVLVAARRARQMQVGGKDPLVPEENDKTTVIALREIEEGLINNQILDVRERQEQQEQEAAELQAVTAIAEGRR

Chain of HCV RNA dependent RNA polymerase (RdRp), NS5B (P26663 2420-3010): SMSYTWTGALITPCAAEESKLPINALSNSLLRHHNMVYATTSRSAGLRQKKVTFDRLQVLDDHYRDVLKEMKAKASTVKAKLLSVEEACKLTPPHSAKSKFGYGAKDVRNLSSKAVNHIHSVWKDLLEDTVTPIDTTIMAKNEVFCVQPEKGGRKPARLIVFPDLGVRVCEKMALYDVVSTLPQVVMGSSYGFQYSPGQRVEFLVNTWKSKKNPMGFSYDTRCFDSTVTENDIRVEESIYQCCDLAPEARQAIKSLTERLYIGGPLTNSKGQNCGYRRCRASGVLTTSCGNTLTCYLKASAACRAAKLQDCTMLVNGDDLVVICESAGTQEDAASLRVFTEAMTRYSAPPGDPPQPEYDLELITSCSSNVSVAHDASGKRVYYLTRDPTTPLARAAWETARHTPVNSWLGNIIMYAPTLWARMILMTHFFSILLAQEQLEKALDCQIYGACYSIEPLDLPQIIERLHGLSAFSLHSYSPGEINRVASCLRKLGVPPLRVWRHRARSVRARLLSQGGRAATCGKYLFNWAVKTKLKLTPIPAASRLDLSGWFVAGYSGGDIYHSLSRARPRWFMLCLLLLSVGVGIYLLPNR

Compound | extension of [33P]GpC by HCV RdRp (incorporation into RNA product) [1] | further elongation by UTP after incorporation ([1]; same experiment with additional UTP (1 mM)) | effect on RNA synthesis by E. coli RNA polymerase [2]
Nc1ncnc2c1ncn2[C@@H]1O[C@H](COP(=O)(O)OP(=O)(O)OP(=O)(O)O)[C@@H](O)[C@H]1O [ATP] | extension of [^33P]GpC by HCV RdRp was observed | Elongation products by UTP were seen | –
O=c1ccn([C@@H]2O[C@@H](CP(=O)(O)OP(=O)(O)OP(=O)(O)O)[C@@H](O)[C@H]2O)c(=O)[nH]1 [Phosphonate (5-deoxy) UTP] | – | – | pseudoterminator of RNA synthesis
Nc1ncnc2c1ncn2[C@@H]1O[C@H](CP(=O)(O)OP(=O)(O)OP(=O)(O)O)[C@@H](O)[C@H]1O [5′d-ATP] | no extension | – | –
